In ChEMBL document CHEMBL5154881, “Discovery of First-in-Class TAK1-MKK3 Protein-Protein Interaction (PPI) Inhibitor (R)-STU104 for the Treatment of Ulcerative Colitis through Modulating TNF-α Production” (J Med Chem, 2022) one finds Activity and Tmax data, which are given here for one compound.

For series [1], the system named is Mus musculus. Description: Antiinflammatory activity against DSS-induced C57BL/6 mouse model of acute ulcerative colitis assessed as inhibition ratio of IL-23 protein expression at 1 mg/kg, IG via gavage measured after 7 days by ELISA relative to control. The format is functional. To be noted: time 7 day. Also on record: scale not given: the % may be the effect or the level left.

Series [2] relates to Mus musculus. Description: Antiinflammatory activity against IL-10-/- C57BL/6 mouse model of ulcerative colitis assessed as inhibition ratio of TNF-alpha mRNA expression in colon tissue at 1 mg/kg, IG via gavage and measured after 8 weeks by RT-qPCR analysis relative to control. In kind it is functional. More on the design: scale not given: the % may be the effect or the level left.

A short description of series [3]: Toxicity in C57 mouse assessed as heart damage at 50 to 500 mg/kg, po administered daily for 14 days. To be noted: in vivo, 336 h, dose 50-500 mg/kg, time 14 day. In kind it is organism-based.
The nature of series [4]: Tmax in 12 hr starved C57 mouse at 30 mg/kg, po measured for 0.083 to 24 hrs post-dose by LC-MS-MS analysis. The format is ADME, organism-based. To be noted: in vivo, time 0.083-24 hrs.
In series [5] the test system is Mus musculus. Description: Antiinflammatory activity against IL-10-/- C57BL/6 mouse model of ulcerative colitis assessed as inhibition ratio of IL-23 protein expression at 10 mg/kg, IG via gavage and measured after 8 weeks by ELISA relative to control. The format is functional. Also on record: scale not given: the % may be the effect or the level left.
The target of series [6] is T1, Dual specificity mitogen-activated protein kinase kinase 3 (Mus musculus) (UniProt O09110).
T1 sequence (whole entry): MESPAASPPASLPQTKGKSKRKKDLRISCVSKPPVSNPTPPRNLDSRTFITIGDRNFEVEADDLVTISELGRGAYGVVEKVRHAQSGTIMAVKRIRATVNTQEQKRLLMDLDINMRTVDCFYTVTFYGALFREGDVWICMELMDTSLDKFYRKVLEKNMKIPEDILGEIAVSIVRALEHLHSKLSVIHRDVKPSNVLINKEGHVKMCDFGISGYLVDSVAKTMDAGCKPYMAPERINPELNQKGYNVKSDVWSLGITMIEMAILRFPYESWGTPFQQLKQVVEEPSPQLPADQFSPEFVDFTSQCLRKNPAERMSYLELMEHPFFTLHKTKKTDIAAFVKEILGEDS
Description: Binding affinity to MKK3 in mouse RAW264.7 cells assessed as increase in thermal stability at 47 degC incubated for 24 hrs by CETSA. In kind it is cell-based. To be noted: dose 1-64 µM, DDE = dose-dependent effect.

Series [7] in a line: Toxicity in C57 mouse assessed as body weight loss at 50 to 500 mg/kg, po administered daily for 14 days. The format is organism-based. The note with it: in vivo, 336 h, dose 50-500 mg/kg, time 14 day.

For orientation: Tmax means the time from dosing to the highest level. Regarding `COc1ccc([C@H]2CC(=O)c3cc(OC)cc(OC)c32)cc1`, the Activity in series [1] is 46.2%; in series [2] it was 24.7%; in series [3], “Non-Toxic”; in series [5] it was 64.4%; in series [6] it was “Dde”; in series [7] it was “Non-Toxic”. The Tmax in series [4] stood at 4.98 min.
